Reference: the supplement of paper PMC10307832

What was measured:
Assay in all cases: relative viability (nuclei count vs DMSO), 5 days (fraction); higher = more cells survive
[1] = compound: CO[C@H]1C[C@@H]2CC[C@@H](C)[C@@](O)(O2)C(=O)C(=O)N2CCCC[C@H]2C(=O)O[C@H]([C@H](C)C[C@@H]2CC[C@@H](OCCO)[C@H](OC)C2)CC(=O)[C@H](C)/C=C(\C)[C@@H](O)[C@@H](OC)C(=O)[C@H](C)C[C@H](C)/C=C/C=C/C=C/1C [Everolimus] + C[C@@H](Oc1cc(-c2cnn(C3CCNCC3)c2)cnc1N)c1c(Cl)ccc(F)c1Cl [Crizotinib] (partner 1 µM)
Method in brief: (§1)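 Nuclei were stained with Hoechst during a one-step fixation (final 0.05% Triton X-100, 1% formaldehyde, 1 ug/ml Hoechst) carried out 5 days after dosing, then counted on 4× images. The cells, lung cancer lines in 1536-well plates, had been dosed by pin tool the day after seeding with one drug alone or a fixed anchor-drug dose plus five library-drug doses (not always all listed) in √10 steps. Relative viability is the nuclei count in treated wells divided by that in vehicle wells, and each value is the median of duplicate plates.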

[2] = compound: CO[C@H]1C[C@@H]2CC[C@@H](C)[C@@](O)(O2)C(=O)C(=O)N2CCCC[C@H]2C(=O)O[C@H]([C@H](C)C[C@@H]2CC[C@@H](OCCO)[C@H](OC)C2)CC(=O)[C@H](C)/C=C(\C)[C@@H](O)[C@@H](OC)C(=O)[C@H](C)C[C@H](C)/C=C/C=C/C=C/1C [Everolimus] + Cc1cc(Nc2cc(N3CCN(C)CC3)nc(Sc3ccc(NC(=O)C4CC4)cc3)n2)n[nH]1 [Tozasertib] (partner 0.1 µM)
Method in brief: as §1

[3] = compound: CO[C@H]1C[C@@H]2CC[C@@H](C)[C@@](O)(O2)C(=O)C(=O)N2CCCC[C@H]2C(=O)O[C@H]([C@H](C)C[C@@H]2CC[C@@H](OCCO)[C@H](OC)C2)CC(=O)[C@H](C)/C=C(\C)[C@@H](O)[C@@H](OC)C(=O)[C@H](C)C[C@H](C)/C=C/C=C/C=C/1C [Everolimus] + Nc1ncn([C@H]2C[C@H](O)[C@@H](CO)O2)c(=O)n1 [Decitabine] (partner 2 µM)
Method in brief: as §1

[4] = compound: CO[C@H]1C[C@@H]2CC[C@@H](C)[C@@](O)(O2)C(=O)C(=O)N2CCCC[C@H]2C(=O)O[C@H]([C@H](C)C[C@@H]2CC[C@@H](OCCO)[C@H](OC)C2)CC(=O)[C@H](C)/C=C(\C)[C@@H](O)[C@@H](OC)C(=O)[C@H](C)C[C@H](C)/C=C/C=C/C=C/1C [Everolimus] + CS(=O)(=O)CCNCc1ccc(-c2ccc3ncnc(Nc4ccc(OCc5cccc(F)c5)c(Cl)c4)c3c2)o1 [Lapatinib] (partner 2 µM)
Method in brief: as §1

NCI-H2126
relative viability ([1]; first compound 0.01 µM): 0.755 | relative viability ([1]; first compound 0.03162 µM): 0.736 | relative viability ([1]; first compound 0.1 µM): 0.671 | relative viability ([1]; first compound 0.3162 µM): 0.721 | relative viability ([1]; first compound 1 µM): 0.665 | relative viability ([2]; first compound 0.01 µM): 0.64 | relative viability ([2]; first compound 0.03162 µM): 0.609 | relative viability ([2]; first compound 0.1 µM): 0.52 | relative viability ([2]; first compound 0.3162 µM): 0.637 | relative viability ([2]; first compound 1 µM): 0.568 | relative viability ([3]; first compound 0.01 µM): 0.484 | relative viability ([3]; first compound 0.03162 µM): 0.421 | relative viability ([3]; first compound 0.1 µM): 0.452 | relative viability ([3]; first compound 0.3162 µM): 0.505 | relative viability ([3]; first compound 1 µM): 0.497 | relative viability ([4]; first compound 0.01 µM): 0.458 | relative viability ([4]; first compound 0.03162 µM): 0.485 | relative viability ([4]; first compound 0.1 µM): 0.426 | relative viability ([4]; first compound 0.3162 µM): 0.472 | relative viability ([4]; first compound 1 µM): 0.501

NCI-H2170
relative viability ([1]; first compound 0.01 µM): 0.59 | relative viability ([1]; first compound 0.03162 µM): 0.587 | relative viability ([1]; first compound 0.1 µM): 0.455 | relative viability ([1]; first compound 0.3162 µM): 0.537 | relative viability ([1]; first compound 1 µM): 0.49 | relative viability ([2]; first compound 0.01 µM): 0.443 | relative viability ([2]; first compound 0.03162 µM): 0.428 | relative viability ([2]; first compound 0.1 µM): 0.461 | relative viability ([2]; first compound 0.3162 µM): 0.518 | relative viability ([2]; first compound 1 µM): 0.399 | relative viability ([3]; first compound 0.01 µM): 0.287 | relative viability ([3]; first compound 0.03162 µM): 0.274 | relative viability ([3]; first compound 0.1 µM): 0.257 | relative viability ([3]; first compound 0.3162 µM): 0.28 | relative viability ([3]; first compound 1 µM): 0.262 | relative viability ([4]; first compound 0.01 µM): 0.214 | relative viability ([4]; first compound 0.03162 µM): 0.242 | relative viability ([4]; first compound 0.1 µM): 0.228 | relative viability ([4]; first compound 0.3162 µM): 0.222 | relative viability ([4]; first compound 1 µM): 0.247

NCI-H2347
relative viability ([1]; first compound 0.01 µM): 0.683 | relative viability ([1]; first compound 0.03162 µM): 0.568 | relative viability ([1]; first compound 0.1 µM): 0.554 | relative viability ([1]; first compound 0.3162 µM): 0.546 | relative viability ([1]; first compound 1 µM): 0.58 | relative viability ([2]; first compound 0.01 µM): 0.531 | relative viability ([2]; first compound 0.03162 µM): 0.519 | relative viability ([2]; first compound 0.1 µM): 0.365 | relative viability ([2]; first compound 0.3162 µM): 0.506 | relative viability ([2]; first compound 1 µM): 0.305 | relative viability ([3]; first compound 0.01 µM): 0.567 | relative viability ([3]; first compound 0.03162 µM): 0.509 | relative viability ([3]; first compound 0.1 µM): 0.553 | relative viability ([3]; first compound 0.3162 µM): 0.526 | relative viability ([3]; first compound 1 µM): 0.548 | relative viability ([4]; first compound 0.01 µM): 0.813 | relative viability ([4]; first compound 0.03162 µM): 1.07 | relative viability ([4]; first compound 0.1 µM): 0.663 | relative viability ([4]; first compound 0.3162 µM): 0.868 | relative viability ([4]; first compound 1 µM): 0.811

NCI-H2405
relative viability ([1]; first compound 0.01 µM): 0.792 | relative viability ([1]; first compound 0.03162 µM): 0.693 | relative viability ([1]; first compound 0.1 µM): 0.683 | relative viability ([1]; first compound 0.3162 µM): 0.696 | relative viability ([1]; first compound 1 µM): 0.659 | relative viability ([2]; first compound 0.01 µM): 0.832 | relative viability ([2]; first compound 0.03162 µM): 0.729 | relative viability ([2]; first compound 0.1 µM): 0.717 | relative viability ([2]; first compound 0.3162 µM): 0.762 | relative viability ([2]; first compound 1 µM): 0.657 | relative viability ([3]; first compound 0.01 µM): 0.521 | relative viability ([3]; first compound 0.03162 µM): 0.531 | relative viability ([3]; first compound 0.1 µM): 0.539 | relative viability ([3]; first compound 0.3162 µM): 0.532 | relative viability ([3]; first compound 1 µM): 0.52 | relative viability ([4]; first compound 0.01 µM): 0.84 | relative viability ([4]; first compound 0.03162 µM): 0.903 | relative viability ([4]; first compound 0.1 µM): 0.712 | relative viability ([4]; first compound 0.3162 µM): 0.872 | relative viability ([4]; first compound 1 µM): 0.796
